# Assay results: patent US20130217659A1, “PROCESS FOR THE CRYSTALLISATION OF CEFADROXIL MONOHYDRATE” (DSM SINOCHEM PHARMACEUTICALS NETHERLANDS B.V., priority 2006, published 2013)
# What was measured:
# Format in all cases: physicochemical
# [1] = Colour stability test, stress conditions: storage at 40° C.; settings: stored at 40° C.
# Description: The CIE b value was determined using a X-Rite® 918 apparatus (X-Rite Incorporated, 4300 44th St. SE, Grand Rapids, Mich. 49512 USA). A sample of 2 g of cefadroxil crystals was placed at the appropriate place of the apparatus and the CIE b value was read. The average of two separate readings was calculated. Cefadroxil (CDX) monohydrate crystals obtained by the one-step crystallisation process of the Reference Experiment A and the two-step crystallisation process according to the present invention were stored at a temperature of 40° C. The CIE b values of the different cefadroxil monohydrate crystals were determined at different time intervals as indicated in Table 1. CDX (1)-(3) were obtained from 3 different crystallisation processes.
# [2] = Determination of the CIE b value (colour of crystals) after crystallisation; settings: crystals after isolation and drying, t=0; monohydrate
# Description: CIE is an abbreviation for the French title of the International Commission on Illumination: “Commission International de l'Eclairage”. The CIE b is a measure to determine the colour of crystals, which is a known technology for the skilled man in the art. An overview of the fundamentals of the CIE colorimetry system is given in Ohno, Y., Paper for IS&T NIO16 Conference, Vancouver, Canada, Oct. 16-20, 2000, p. 1-5. The CIE b value was determined using a X-Rite® 918 apparatus (X-Rite Incorporated, 4300 44th St. SE, Grand Rapids, Mich. 49512 USA). A sample of 2 g of cefadroxil crystals was placed at the appropriate place of the apparatus and the CIE b value was read. The average of two separate readings was calculated.
# [3] = Colour stability test, storage at 25° C.; settings: stored at 25° C.
# Description: The CIE b value was determined using a X-Rite® 918 apparatus (X-Rite Incorporated, 4300 44th St. SE, Grand Rapids, Mich. 49512 USA). A sample of 2 g of cefadroxil crystals was placed at the appropriate place of the apparatus and the CIE b value was read. The average of two separate readings was calculated. The cefadroxil monohydrate crystals obtained with the one-step crystallisation process of Reference experiment A and a two-step crystallisation process according to the present invention were stored at 25° C.
smiles,measurement,setting,value
"CC1=C(C(=O)O)N2C(=O)[C@@H](NC(=O)[C@H](N)c3ccc(O)cc3)[C@H]2SC1 [CDX (1), cefadroxil monohydrate]",CIE b,"[1]; 0 weeks, monohydrate",4.8
same,CIE b,"[1]; 4 weeks, monohydrate",6.6
same,CIE b,"[1]; 8 weeks, monohydrate",9.1
same,CIE b,"[1]; 12 weeks, monohydrate",10.4
same,CIE b,"[1]; 20 weeks, monohydrate",12.4
same,CIE b,"[1]; 24 weeks, monohydrate",12.9
"CC1=C(C(=O)O)N2C(=O)[C@@H](NC(=O)[C@H](N)c3ccc(O)cc3)[C@H]2SC1 [CDX (2), cefadroxil monohydrate]",CIE b,"[1]; 0 weeks, monohydrate",4.4
same,CIE b,"[1]; 2 weeks, monohydrate",4.8
same,CIE b,"[1]; 4 weeks, monohydrate",5.1
"CC1=C(C(=O)O)N2C(=O)[C@@H](NC(=O)[C@H](N)c3ccc(O)cc3)[C@H]2SC1 [CDX (3), cefadroxil monohydrate]",CIE b,"[1]; 0 weeks, monohydrate",3.1
same,CIE b,"[1]; 2 weeks, monohydrate",3.0
same,CIE b,"[1]; 4 weeks, monohydrate",4.6
"CC1=C(C(=O)O)N2C(=O)[C@@H](NC(=O)[C@H](N)c3ccc(O)cc3)[C@H]2SC1 [Example 1, cefadroxil monohydrate]",CIE b value,[2],4.68
"CC1=C(C(=O)O)N2C(=O)[C@@H](NC(=O)[C@H](N)c3ccc(O)cc3)[C@H]2SC1 [Example 2, cefadroxil monohydrate]",CIE b value,[2],4.52
"CC1=C(C(=O)O)N2C(=O)[C@@H](NC(=O)[C@H](N)c3ccc(O)cc3)[C@H]2SC1 [Reference Experiment A, cefadroxil monohydrate]",CIE b value,[2],6.2
same,CIE b,"[1]; 0 weeks, listed as CDX monohydrate crystals obtained by the one-step crystallisation process, monohydrate",6.2
same,CIE b,"[1]; 2 weeks, listed as CDX monohydrate crystals obtained by the one-step crystallisation process, monohydrate",10.0
same,CIE b,"[1]; 4 weeks, listed as CDX monohydrate crystals obtained by the one-step crystallisation process, monohydrate",13.2
same,CIE b,[1]; 6 weeks,15.6
same,CIE b,"[1]; 8 weeks, listed as CDX monohydrate crystals obtained by the one-step crystallisation process, monohydrate",17.0
same,CIE b,[1]; 12 weeks,14.2
same,CIE b,[1]; 14 weeks,18.2
same,CIE b,[1]; 18 weeks,18.6
same,CIE b,"[1]; 20 weeks, listed as CDX monohydrate crystals obtained by the one-step crystallisation process, monohydrate",19.1
same,CIE b,"[1]; 24 weeks, listed as CDX monohydrate crystals obtained by the one-step crystallisation process, monohydrate",20.0
same,CIE b,"[3]; 0 months, listed as one-step crystallization process, monohydrate",6.2
same,CIE b,"[3]; 3 months, listed as one-step crystallization process, monohydrate",14.0
same,CIE b,"[3]; 6 months, listed as one-step crystallization process, monohydrate",14.7
same,CIE b,"[3]; 9 months, listed as one-step crystallization process, monohydrate",15.1
same,CIE b,[3]; 12 months,15.5
same,CIE b,[3]; 18 months,17.7
"CC1=C(C(=O)O)N2C(=O)[C@@H](NC(=O)[C@H](N)c3ccc(O)cc3)[C@H]2SC1 [two-step crystallization process, cefadroxil monohydrate]",CIE b,"[3]; 0 months, monohydrate",4.8
same,CIE b,"[3]; 3 months, monohydrate",5.8
same,CIE b,"[3]; 6 months, monohydrate",6.0
same,CIE b,"[3]; 9 months, monohydrate",6.3
